Literature values in US6627153B1, “Integrated assay for organ function, drugs and/or one or more metabolites” (priority 1999, dated 2003).

Settings: following oral administration; within the first 24 hours

## CN(C)C(=N)N=C(N)N [Metformin]
  absorbed drug eliminated via the renal route: 90%
